Experimental data reported in patent US10047122B2, “Peptide and peptide mimetic binding antagonists of polo-like kinase 1 polo box domain and methods of use” (The United States of America, as represented by the …, priority 2013, dated 2018).
pIC50: −log10 of the molar value. Numbered stars: 1 amine (or outer) side, 2 acyl side, 3 side chain; on linkers, the order of the positions; unused ones are H or OH. Square brackets hold non-standard residues; d marks the D form. Peptide text beside a SMILES is read from it. X1 = C[C@@H](OP(=O)(OCOC(=O)C(C)(C)C)OCOC(=O)C(C)(C)C)[C@H](N[*:1])C(=O)[*:2]; X2 = C[C@@H](CP(=O)(OCOC(=O)C(C)(C)C)OCOC(=O)C(C)(C)C)[C@H](N[*:1])C(=O)[*:2]; His(π-(CH2)8Ph) = N[C@@H](Cc1cncn1CCCCCCCCc1ccccc1)C(=O)O

Key:
Porcine Liver Esterase = test: PLE hydrolysis experiment (enzymatic deprotection of POM-protected peptides); assay type: in vitro ADME; details: pig, 200 μM peptide, pH 7.4, 37° C.
Experimental: Hydrolysis assays were run on five POM-protected peptides (see below):
(§1) There are three types of hydrolysis experiment performed in these peptides.
Type 1: 200 μM peptide with Porcine Liver Esterase (58 units, according the protocol presented in Srivastva, D. N.; Farquhar, D. Bioorg. Chem. 1984, 12, 118).
PLE hydrolysis experiment. 0.05M potassium phosphate buffer (pH 7.4) was placed in centrifuge tube. A solution of selected peptide in methanol was added to the buffer. Final concentration of the peptide was 200 μM, MeOH was less than 1% in solution. Take 1 mL of the above solution, then added Pig liver esterase (57.6 units). The reaction mixture was then incubated at 37° C. by shaking. At different time point, certain amount (50 μL) of reaction mixture was taken and placed in a separate Eppendorf tube containing 1 equiv. volume MeCN (50 μL). After work-up, the hydrolysis product was monitored by LC-MS.

[1] = Culture medium hydrolysis experiment; assay type: in vitro ADME; details: for half-life at 1 μM: 1 μM peptide in culture medium
Experimental: as §1
Type 2: 1 μM peptide in culture medium and 200 μM peptide in culture medium.
Culture medium hydrolysis experiment. Culture medium was placed in centrifuge tube. A solution of selected peptide in methanol was added to the culture medium. Final concentration of the peptide was 1 μM or 200 μM, MeOH was less than 1% in solution. The reaction mixture was then incubated at 37° C. by shaking. At different time point, certain amount (50 μL) of reaction mixture was taken and placed in a separate Eppendorf tube containing 1 equiv. volume MeCN (50 μL). After work-up, the hydrolysis product was monitored by LC-MS.

[2] = Cell lysate hydrolysis experiment; assay type: in vitro ADME; details: 1 μM peptide in cell lysate, 37° C.; read-out: Half-life of peptides in cell lysate
Experimental: as §1
Type 3: 1 μM peptide in cell lysate.
Cell lysate hydrolysis experiment. Cell lysate was placed in 96-well plate. A solution of selected peptide in DMSO was added to the cell lysate. Final concentration of the peptide was 1 μM, DMSO was less than 1% in solution. The reaction mixture was then incubated at 37° C. by shaking. At different time point, 1 equiv. by volume of MeCN was added to well to quench the reaction. After work-up, the hydrolysis product was monitored by LC-MS.

HeLa cells = assay type: cell-based
Experimental: Cell culture, analysis of the cell proliferation and aberrant mitotic population, and indirect immunofluorescence microscopy: HeLa cervical carcinoma cell line CCL2, 293A and 293T cells were cultured as recommended by the American Type Culture Collection (Manassas, Va.), were cultured as recommended by American Type Culture Collection (Manassas, Va.). To prepare mitotic 293A cells expressing HA-EGFP-Plk1, cells were infected with adenovirus expressing HA-EGFP-Plk1 and arrested with 200 ng/ml of nocodazole for 16 h. To analyze the effect of the indicated compounds in cultured cells, logarithmically growing HeLa cells were treated with 200 μM of the indicated compounds for 24 h (a sufficient amount of time to enrich mitotically-arrested cells), treated with Hoechst 33342 for […], and then fixed with 4% paraformaldehyde.
Cell-based growth inhibition assays were performed.

[3] = target: T1, Plk1 PBD (cellular lysates expressing HA-EGFP-Plk1) (Homo sapiens, UniProt P53350); test: ELISA-based PBD-binding inhibition assay; details: immobilized biotinylated p-T78 peptide, lysates with full-length Plk1
T1 construct: cell lysates containing full-length Plk1 were incubated with test peptides; expressed in transfected cells; host or cells: 293A cells infected with adenovirus expressing HA-EGFP-Plk1, arrested with nocodazole
T1 sequence (P53350 whole entry): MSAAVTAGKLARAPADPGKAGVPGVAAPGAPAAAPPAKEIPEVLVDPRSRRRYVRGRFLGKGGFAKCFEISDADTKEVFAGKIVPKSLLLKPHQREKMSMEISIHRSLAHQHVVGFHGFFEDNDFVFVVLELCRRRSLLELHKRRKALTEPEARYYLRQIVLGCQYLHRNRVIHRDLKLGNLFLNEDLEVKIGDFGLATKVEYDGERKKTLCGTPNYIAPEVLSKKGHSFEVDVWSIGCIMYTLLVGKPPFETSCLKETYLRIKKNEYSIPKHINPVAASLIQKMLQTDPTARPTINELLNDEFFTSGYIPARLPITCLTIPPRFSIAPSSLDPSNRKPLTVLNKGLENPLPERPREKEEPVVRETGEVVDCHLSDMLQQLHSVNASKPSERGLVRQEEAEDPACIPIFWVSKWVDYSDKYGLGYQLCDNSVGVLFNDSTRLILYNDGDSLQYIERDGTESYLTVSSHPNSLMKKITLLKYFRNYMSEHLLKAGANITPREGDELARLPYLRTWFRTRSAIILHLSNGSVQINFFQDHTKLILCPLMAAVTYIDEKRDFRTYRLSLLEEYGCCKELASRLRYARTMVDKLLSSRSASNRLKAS
Experimental: An ELISA-based PBD-binding inhibition assay was carried out using an immobilized biotinylated 9-mer p-T78 peptide {Biotin-C—(CH2)6-(CH2)6-DPPLHSpTAI-NH2} and the cellular lysates expressing HA-EGFP-Plk1.
A biotinylated p-T78 peptide was first diluted with 1× coating solution (KPL Inc., Gaithersburg, Md.) to the final concentration of 0.3 μM, and then 100 μl of the resulting solution was immobilized onto a 96-well streptavidin-coated plate (Nalgene Nunc, Rochester, N.Y.). The wells were washed once with PBS plus 0.05% Tween20 (PBST), and incubated with 200 μl of PBS plus 1% BSA (blocking buffer) for 1 h to prevent non-specific binding. […] Following the incubation, ELISA plates were washed 4 times with PBST. To detect bound HA-EGFP-Plk1, the plates were probed for 2 h with 100 μl/well of anti-HA antibody at a concentration of 0.5 μg/ml in blocking buffer and then washed 5 times. The plates were further probed for 1 h with 100 μl/well of HRP-conjugated secondary antibody (GE Healthcare, Piscataway, N.J.) at a 1:1,000 dilution in blocking buffer. The plates were washed 5 times with PBST and incubated with 100 μl/well of 3,3′,5,5′-tetramethylbenzidine (TMB) solution (Sigma, St. Louis, Mo.) as a substrate until a desired absorbance was reached. […] The optical density (O.D.) was measured at 450 nm by using an ELISA plate reader (Molecular Devices, Sunnyvale, Calif.).

[4] = 37° C., read-out: Half-life of peptides in culture medium

SMILES | half-life at 200 μM (Porcine Liver Esterase) | half-life at 1 μM [1, 4] | half-life at 200 μM ([1]; 200 μM peptide in culture medium, 37° C., read-out: Half-life of peptides in culture medium) | half-life at 1 μM [2] | hydrolysis product detected after 24 h incubation ([1]; 200 μM peptide in culture medium, 24 h) | pIC50 (HeLa cells) | pIC50 [3]
CC(=O)N1CCC[C@H]1C(=O)N[C@@H](CC(C)C)C(=O)N[C@@H](Cc1c[nH]cn1)C(=O)N[C@@H](CO)C(=O)N[C@H](C(N)=O)[C@@H](C)OP(=O)(OCOC(=O)C(C)(C)C)OCOC(=O)C(C)(C)C [Compound A1, Ac-Pro-Leu-His-Ser-Thr(PO2POM2)-amide] (Ac-PLHS[X1]-NH2) | 0.113 h |  |  |  |  |  | 
CC(=O)N1CCC[C@H]1C(=O)N[C@@H](CC(C)C)C(=O)N[C@@H](Cc1c[nH]cn1)C(=O)N[C@@H](CO)C(=O)N[C@H](C(N)=O)[C@@H](C)CP(=O)(OCOC(=O)C(C)(C)C)OCOC(=O)C(C)(C)C [Compound A3] (Ac-PLHS[X2]-NH2) | 0.085 h |  |  |  |  |  | 
CC(=O)N1CCC[C@H]1C(=O)N[C@@H](CC(C)C)C(=O)N[C@@H](Cc1cncn1CCCCCCCCc1ccccc1)C(=O)N[C@@H](CO)C(=O)N[C@H](C(N)=O)[C@@H](C)OP(=O)(OCOC(=O)C(C)(C)C)OCOC(=O)C(C)(C)C [Compound A5] (Ac-PL[His(π-(CH2)8Ph)]S[X1]-NH2) | 1.9 h | 0.537 h | 7.43 h | 2.32 h |  |  | 
CC(=O)N1CCC[C@H]1C(=O)N[C@@H](CC(C)C)C(=O)N[C@@H](Cc1c[n+](CCO)cn1CCCCCCCCc1ccccc1)C(=O)N[C@@H](CO)C(=O)N[C@H](C(N)=O)[C@@H](C)OP(=O)(O)OCOC(=O)C(C)(C)C [Compound A10] | 4 h | 6.87 h |  | 1.48 h | ^a<5% hydrolysis product could be detected after 24 h incubation. | 4.24 | 8.03
